In patent US10647713B2 (Nimbus Lakshmi, Inc., priority 2016, dated 2020) one finds Kd data, which are given here for 28 compounds.

The structures appear in SMILES notation. Bounds are passed on as bounds.

The experiment deals with human TYK2 (JH2domain-pseudokinase) (Homo sapiens (Human), UniProt P29597). The experiment can be described thus: TYK2 JH2 Domain Binding Assay (KINOMEscan, DiscoveRx). As to conditions: 11-point dilution, duplicate. In a few lines: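 TYK2 JH2 (G556–D888)–NFkB DBD fusion, DNA-tagged, from HEK293 extracts (<0.1 nM) competed against immobilised biotinylated ligand for 1 h at room temperature, 0.9% DMSO. Bead-retained kinase quantified by qPCR; Kd from 11-point 3-fold series (top 30,000 nM, duplicate), Hill fit with slope −1.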
Chain of human TYK2 (JH2domain-pseudokinase) (P29597 556-888): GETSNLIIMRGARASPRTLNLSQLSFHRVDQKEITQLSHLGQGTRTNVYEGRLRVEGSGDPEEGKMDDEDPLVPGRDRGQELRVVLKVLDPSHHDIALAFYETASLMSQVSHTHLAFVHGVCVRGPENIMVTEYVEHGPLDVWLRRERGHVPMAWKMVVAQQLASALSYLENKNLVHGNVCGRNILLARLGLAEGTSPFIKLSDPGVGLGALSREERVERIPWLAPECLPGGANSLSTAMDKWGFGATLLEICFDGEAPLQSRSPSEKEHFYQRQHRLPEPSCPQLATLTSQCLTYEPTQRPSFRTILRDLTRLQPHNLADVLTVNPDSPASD
The term Kd denotes a measure of binding affinity in units of concentration. Low values mean a tighter complex, high ones a looser complex. With `CS(=O)(=O)c1cc(C2CCC(F)(F)CO2)ccc1Nc1cc(NC(=O)C2CC2)nc2[nH]c(C(F)F)nc12` (stereo not shown) [I-571, N-(2-(difluoromethyl)-7-((4-(5,5-difluorotetrahydro-2H-pyran-2-yl)-2-(methylsulfonyl)phenyl)amino)-3H-imidazo[4,5-b]pyridin-5-yl)cyclopropanecarboxamide], the dissociation constant (Kd) lay within 0.1 to 0.5 nM. In turn, `Cc1nc2c(Nc3ccc(C4CCC(F)(F)CO4)cc3S(C)(=O)=O)cc(NC(=O)C3CC3)nc2[nH]1` (stereo not shown) [I-572, N-(7-((4-(5,5-difluorotetrahydro-2H-pyran-2-yl)-2-(methylsulfonyl)phenyl)amino)-2-methyl-3H-imidazo[4,5-b]pyridin-5-yl)cyclopropanecarboxamide] yielded a Kd of 0.1 to 0.5 nM. The compound `COc1c(Nc2cc(Nc3cccc(C#N)n3)nc3[nH]c(C)nc23)cccc1-c1nccs1` [I-573, 6-((7-((2-methoxy-3-(thiazol-2-yl)phenyl)amino)-2-methyl-3H-imidazo[4,5-b]pyridin-5-yl)amino)picolinonitrile] had a Kd of 1 to 10 nM. For the compound `COc1c(Nc2cc(Nc3cccc(C#N)n3)nc3[nH]c(C(F)F)nc23)cccc1-c1cnn(C)n1` [I-574, 6-((2-(difluoromethyl)-7-((2-methoxy-3-(2-methyl-2H-1,2,3-triazol-4-yl)phenyl)amino)-3H-imidazo[4,5-b]pyridin-5-yl)amino)picolinonitrile], the Kd was 0.1 to 0.5 nM. `Cc1nc2c(Nc3ccc(C4CCCO4)cc3S(C)(=O)=O)cc(Nc3ccc(C(C)C)c(C#N)n3)nc2[nH]1` (stereo not shown) [I-575, 3-isopropyl-6-((2-methyl-7-((2-(methylsulfonyl)-4-(tetrahydrofuran-2-yl)phenyl)amino)-3H-imidazo[4,5-b]pyridin-5-yl)amino)picolinonitrile] returned a Kd of 0.1 to 0.5 nM.

`COc1c(Nc2cc(NC(=O)C3CC3)nc3[nH]c(C(F)F)nc23)ccc(-c2cc(C)n(C)n2)c1F` [I-576, N-(2-(difluoromethyl)-7-((4-(1,5-dimethyl-1H-pyrazol-3-yl)-3-fluoro-2-methoxyphenyl)amino)-3H-imidazo[4,5-b]pyridin-5-yl)cyclopropanecarboxamide]: the Kd was > 10 nM. With `COc1c(Nc2cc(NC(=O)C3CC3)nc3[nH]c(C)nc23)ccc(-c2cc(C)n(C)n2)c1F` [I-577, N-(7-((4-(1,5-dimethyl-1H-pyrazol-3-yl)-3-fluoro-2-methoxyphenyl)amino)-2-methyl-3H-imidazo[4,5-b]pyridin-5-yl)cyclopropanecarboxamide], the Kd is > 10 nM.

Consider `Cc1cc(Nc2cc(Nc3ccc(-c4nc(C)sc4C)cc3S(C)(=O)=O)c3nc(C(F)F)[nH]c3n2)nc(C)n1` [I-578, 2-(difluoromethyl)-N5-(2,6-dimethylpyrimidin-4-yl)-N7-(4-(2,5-dimethylthiazol-4-yl)-2-(methylsulfonyl)phenyl)-3H-imidazo[4,5-b]pyridine-5,7-diamine], for which the Kd lay in the range of 0.1 to 0.5 nM. Next, `Cc1cc(Nc2cc(Nc3ccc(-c4nc(C)sc4C)cc3S(C)(=O)=O)c3nc(C)[nH]c3n2)nc(C)n1` [I-579, N5-(2,6-dimethylpyrimidin-4-yl)-N7-(4-(2,5-dimethylthiazol-4-yl)-2-(methylsulfonyl)phenyl)-2-methyl-3H-imidazo[4,5-b]pyridine-5,7-diamine]: < 0.1 nM; `Cc1nc(-c2ccc(Nc3cc(Nc4cnc(C)c(C)n4)nc4[nH]c(C(F)F)nc34)c(S(C)(=O)=O)c2)c(C)s1` [I-580, 2-(difluoromethyl)-N5-(5,6-dimethylpyrazin-2-yl)-N7-(4-(2,5-dimethylthiazol-4-yl)-2-(methylsulfonyl)phenyl)-3H-imidazo[4,5-b]pyridine-5,7-diamine]: 0.1 to 0.5 nM. Consider `Cc1nc2c(Nc3ccc(-c4nc(C)sc4C)cc3S(C)(=O)=O)cc(Nc3cnc(C)c(C)n3)nc2[nH]1` [I-581, N5-(5,6-dimethylpyrazin-2-yl)-N7-(4-(2,5-dimethylthiazol-4-yl)-2-(methylsulfonyl)phenyl)-2-methyl-3H-imidazo[4,5-b]pyridine-5,7-diamine], for which the Kd lay within 0.1 to 0.5 nM. Regarding `COc1cc(-c2nc(C)c(C)s2)ccc1Nc1cc(NC(=O)C2CC2)nc2[nH]c(C(F)F)nc12` [I-582, N-(2-(difluoromethyl)-7-((4-(4,5-dimethylthiazol-2-yl)-2-methoxyphenyl)amino)-3H-imidazo[4,5-b]pyridin-5-yl)cyclopropanecarboxamide], the Kd was > 10 nM. Next, `Cc1nc2c(Nc3ccc(-c4cc(C)n(C)n4)cc3S(C)(=O)=O)cc(Nc3cccc(C#N)n3)nc2[nH]1` [I-583, 6-((7-((4-(1,5-dimethyl-1H-pyrazol-3-yl)-2-(methylsulfonyl)phenyl)amino)-2-methyl-3H-imidazo[4,5-b]pyridin-5-yl)amino)picolinonitrile]: 0.1 to 0.5 nM; `COCCCc1cnc(-c2ccc(Nc3cc(NC(=O)C4CC4)nc4[nH]c(C(F)F)nc34)c(S(C)(=O)=O)c2)s1` [I-584, N-(2-(difluoromethyl)-7-((4-(5-(3-methoxypropyl)thiazol-2-yl)-2-(methylsulfonyl)phenyl)amino)-3H-imidazo[4,5-b]pyridin-5-yl)cyclopropanecarboxamide]: 0.1 to 0.5 nM; `Cc1nc2c(Nc3ccc(-c4cnn(C)c4C)cc3S(C)(=O)=O)cc(Nc3cccc(C(F)(F)F)n3)nc2[nH]1` [I-585, N7-(4-(1,5-dimethyl-1H-pyrazol-4-yl)-2-(methylsulfonyl)phenyl)-2-methyl-N5-(6-(trifluoromethyl)pyridin-2-yl)-3H-imidazo[4,5-b]pyridine-5,7-diamine]: 0.1 to 0.5 nM. For `Cc1nc2c(Nc3ccc([C@H]4CCCCO4)cc3S(C)(=O)=O)cc(Nc3cc4n(n3)CCOC4)nc2[nH]1` [I-587, (R)—N5-(6,7-dihydro-4H-pyrazolo[5,1-c][1,4]oxazin-2-yl)-2-methyl-N7-(2-(methylsulfonyl)-4-(tetrahydro-2H-pyran-2-yl)phenyl)-3H-imidazo[4,5-b]pyridine-5,7-diamine], the Kd is 0.1 to 0.5 nM.

`CS(=O)(=O)c1cc(C2COCCO2)ccc1Nc1cc(NC(=O)C2CC2)nc2[nH]c(C(F)F)nc12` (stereo not shown) [I-588, N-(7-((4-(1,4-dioxan-2-yl)-2-(methylsulfonyl)phenyl)amino)-2-(difluoromethyl)-3H-imidazo[4,5-b]pyridin-5-yl)cyclopropanecarboxamide] came in with a dissociation constant (Kd) of 0.1 to 0.5 nM. Regarding `COc1cc(-c2cc(C)n(C)n2)ccc1Nc1cc(NC(=O)C2CC2)nc2[nH]c(C(F)F)nc12` [I-589, N-(2-(difluoromethyl)-7-((4-(1,5-dimethyl-1H-pyrazol-3-yl)-2-methoxyphenyl)amino)-3H-imidazo[4,5-b]pyridin-5-yl)cyclopropanecarboxamide], the Kd was in the range of 1 to 10 nM. To `COc1cc(-c2cc(C)n(C)n2)ccc1Nc1cc(NC(=O)C2CC2)nc2[nH]c(C)nc12` [I-590, N-(7-((4-(1,5-dimethyl-1H-pyrazol-3-yl)-2-methoxyphenyl)amino)-2-methyl-3H-imidazo[4,5-b]pyridin-5-yl)cyclopropanecarboxamide] belongs 1 to 10 nM. `Cc1nc2c(Nc3ccc([C@H]4CCC(C)(C)O4)cc3S(C)(=O)=O)cc(NC(=O)C3CC3)nc2[nH]1` [I-591, (R)—N-(7-((4-(5,5-dimethyltetrahydrofuran-2-yl)-2-(methylsulfonyl)phenyl)amino)-2-methyl-3H-imidazo[4,5-b]pyridineyl)cyclopropanecarboxamide]: the dissociation constant Kd is 0.1 to 0.5 nM. Regarding `Cc1nc2c(Nc3ccc([C@@H]4CCC(C)(C)O4)cc3S(C)(=O)=O)cc(NC(=O)C3CC3)nc2[nH]1` [I-592, (S)—N-(7-((4-(5,5-dimethyltetrahydrofuran-2-yl)-2-(methylsulfonyl)phenyl)amino)-2-methyl-3H-imidazo[4,5-b]pyridin-5-yl)cyclopropanecarboxamide], the Kd lay in the range of 0.5 to 1 nM. For `CS(=O)(=O)c1cc([C@H]2CCC(F)(F)CO2)ccc1Nc1cc(NC(=O)C2CC2)nc2[nH]c(C(F)F)nc12` [I-593, (R)—N-(2-(difluoromethyl)-7-((4-(5,5-difluorotetrahydro-2H-pyran-2-yl)-2-(methylsulfonyl)phenyl)amino)-3H-imidazo[4,5-b]pyridin-5-yl)cyclopropanecarboxamide], the equilibrium dissociation constant (Kd) lay within 1 to 10 nM. On to `CS(=O)(=O)c1cc([C@@H]2CCC(F)(F)CO2)ccc1Nc1cc(NC(=O)C2CC2)nc2[nH]c(C(F)F)nc12` [I-594, (S)—N-(2-(difluoromethyl)-7-((4-(5,5-difluorotetrahydro-2H-pyran-2-yl)-2-(methylsulfonyl)phenyl)amino)-3H-imidazo[4,5-b]pyridin-5-yl)cyclopropanecarboxamide], for which the dissociation constant Kd was in the range of 0.1 to 0.5 nM. With `Cc1nc2c(Nc3ccc([C@H]4CCCO4)cc3S(C)(=O)=O)cc(Nc3ccc(C(C)C)c(C#N)n3)nc2[nH]1` [I-595, (R)-3-isopropyl-6-((2-methyl-7-((2-(methylsulfonyl)-4-(tetrahydrofuran-2-yl)phenyl)amino)-3H-imidazo[4,5-b]pyridin-5-yl)amino)picolinonitrile], the Kd was 0.1 to 0.5 nM. To `Cc1nc2c(Nc3ccc([C@@H]4CCCO4)cc3S(C)(=O)=O)cc(Nc3ccc(C(C)C)c(C#N)n3)nc2[nH]1` [I-596, (S)-3-isopropyl-6-((2-methyl-7-((2-(methylsulfonyl)-4-(tetrahydrofuran-2-yl)phenyl)amino)-3H-imidazo[4,5-b]pyridin-5-yl)amino)picolinonitrile] belongs 0.5 to 1 nM; to `Cc1nc2c(Nc3ccccc3S(C)(=O)=O)cc(Nc3cc4c(nn3)CCC4)nc2[nH]1` [I-597, N5-(6,7-dihydro-5H-cyclopenta[c]pyridazin-3-yl)-2-methyl-N7-(2-(methylsulfonyl)phenyl)-3H-imidazo[4,5-b]pyridine-5,7-diamine], 0.1 to 0.5 nM. To `COc1c(Nc2cc(Nc3cccc(C#N)n3)nc3[nH]c(C(F)F)nc23)cccc1-c1noc(C)n1` [I-598, 6-((2-(difluoromethyl)-7-((2-methoxy-3-(5-methyl-1,2,4-oxadiazol-3-yl)phenyl)amino)-3H-imidazo[4,5-b]pyridin-5-yl)amino)picolinonitrile] belongs 0.5 to 1 nM; to `CS(=O)(=O)c1ccccc1Nc1cc(Nc2cccc(C(F)(F)F)n2)nc2[nH]c(C(F)F)nc12` [I-599], 0.5 to 1 nM.
